In assay [1] the test system is acute liver injury induced by carbon tetrachloride. Kind of assay: Effect on acute liver injury induced by carbon tetrachloride (serum GPT). Format: in vivo, male ICR strain mice. The conditions noted are these: oral, mice, 18 hours; for GPT: mean ± S.E.; for Inhibition %: serum GPT vs control. The procedure: (§1) Effect on acute liver injury induced by carbon tetrachloride Ten male ICR strain mice (six weeks old, about 30 g of body weight) per group were used for the test. Suspensions of the compound, obtained in Example 1, in 5% gum arabic solution in various concentrations were prepared for test drugs. A 5% gum arabic solution was used as a control. The test drugs and a 5% gum arabic solution were each administered orally in an amount of 10 ml/kg of body weight to different animals. After standing for 18 hours, the animals were anesthetized with ether, the blood was drawn and centrifuged for measuring the serum GPT value. Malotilate served as a comparative test drug.

Assay [2] deals with acute liver injury induced by D-galactosamine. Kind of assay: Effect on acute liver injury induced by D-galactosamine (serum GPT). Type of assay: in vivo, male Wister strain rats. As to conditions: oral, rats, 18 hours; for GPT: mean ± S.E.; for Inhibition %: serum GPT vs control. How it is done: as §1, with “D-galactosamine Six” for “carbon tetrachloride Ten”, “Wister” for “ICR”, “rats (eight” for “mice (six”, “200” for “30”, “5” for “10”

Consider `CC(=O)N(C)CC(=O)c1ccc2c(c1)OCO2` [A, N-methyl-N-(3,4-methylenedioxyphenacyl)acetamide], for which the GPT is 2634 ± 380 IU/1 in assay [1] (10 mg/kg); 636 ± 245 IU/1 in assay [1] (30 mg/kg); 39 ± 3 IU/1 in assay [1] (100 mg/kg); 15972 ± 2810 IU/1 in assay [2] (30 mg/kg); 7440 ± 757 IU/1 in assay [2] (100 mg/kg); 4415 ± 1539 IU/1 in assay [2] (300 mg/kg). For the same compound, the Inhibition % was found to be 56% in assay [1] (10 mg/kg); 89% in assay [1] (30 mg/kg); 100% in assay [1] (100 mg/kg); 22.5% in assay [2] (30 mg/kg); 64.1% in assay [2] (100 mg/kg); 78.8% in assay [2] (300 mg/kg).
For the compound `CC(C)OC(=O)C(C(=O)OC(C)C)=C1SC=CS1` [B, Malotilate], the GPT in assay [1] (10 mg/kg) is reported as 4291 ± 1012 IU/1; in assay [1] (30 mg/kg), 1778 ± 310 IU/1; in assay [1] (100 mg/kg) it was 148 ± 40 IU/1; in assay [2] (30 mg/kg), 19240 ± 1183 IU/1; in assay [2] (100 mg/kg) it was 11190 ± 777 IU/1; in assay [2] (300 mg/kg), 15557 ± 1669 IU/1. The Inhibition % in assay [1] (10 mg/kg) worked out at 28%; in assay [1] (30 mg/kg), 71%; in assay [1] (100 mg/kg) it was 98%; in assay [2] (30 mg/kg), 6.4%; in assay [2] (100 mg/kg), 45.6%; in assay [2] (300 mg/kg) it was 24.6%.

The record behind these values is patent US4937360A, “N-substituted amide derivatives useful for treating liver diseases” (Taisho Pharmaceutical Co., Ltd., priority 1988, dated 1990).
